Reference: patent publication US20190175554A1, “METHOD FOR TREATING PRURITUS AND/OR ITCH” (Neurim Pharmaceuticals (1991) Ltd., priority 2016, published 2019)
Where “and” joins values, the source holds several entries; their conditions need not be identical. Equal values may be shown once. Read-outs that look alike come from different tables or passages of the source.

Legend:
[1] = tested on: mice, formalin injected into the right hindpaw; assay: Formalin test, hindpaw licking time in mice; type: in vivo, mouse; details: 100 mg/kg intraperitoneally 30 min before formalin
Method: The anti-pruritus activity of pyrone-indole compounds were assessed using this model.
Method. The noxious stimulus is an injection of dilute formalin under the skin of the dorsal surface of the right hindpaw. The response is the amount of time the animals spend licking the injected paw 5-10 minutes (early phase), or 20-30 minutes (late phase) after the injection of formalin. Mice (N=8 per group) were injected intraperitoneally with test compound (100 mg/kg), or morphine (4 mg/kg), or vehicle. Thirty minutes later, formalin (20 μl 2.5% in water) was injected by the subplantar route into the right hindpaw. Hindpaw licking time was recorded in consecutive 5 minute-intervals during the first 10 minutes (early phase), and from 15 to 35 minutes (late phase) after formalin injection.

TRPV1 [2] = molecular target: T1, TRPV1 (Homo sapiens, UniProt Q8NER1); assay: TRPV1 calcium influx assay; type: cell-based; details: for inhibitory effect on TRPV1 mediated calcium influx (in words): 10 μM, significant = three or more SD from agonist mean (37.74% inhibition); for inhibition at 0.1 µM / inhibition at 0.5 µM / inhibition at 1 µM / inhibition at 5 µM / inhibition at 10 µM: read-out: Normalized % inhibition; for inhibition at 0.5 µM: Test conc 0.5 μM; for inhibition at 1 µM: Test conc 1 μM; for inhibition at 5 µM: Test conc 5 μM; for inhibition at 10 µM: Test conc 10 μM
Method: Method. The ability of N-[2-(1H-indol-3-yl)-ethyl]-comanilamide, N-[2-(5-methoxy-indol-3-yl)-ethyl]-comanilamide and 2-methyl-4-oxo-4H-pyran-3-yl [2-(5-methoxy-1H-indol-3-yl)ethyl]carbamate to act as antagonists of TRPV1 was evaluated with a calcium influx assay. The signal elicited in the presence of the positive control agonist (0.1 μM capsaicin) was set to 100% and the signal in the presence of the antagonist (0.1 μM capsaicin+3 μM ruthenium red) was set to 0.

TRPV1 [3] = molecular target: T1, TRPV1; assay: TRPV1 calcium influx assay; type: cell-based
hNav1.7 = molecular target: T2, hNav1.7 (Homo sapiens, UniProt Q15858); assay: Block of hNav1.x channels expressed in mammalian cells, voltage protocol; type: cell-based; details: blocking effects on hNav1.x channels, Table 3
T2 construct: expressed in transfected cells
Method: Effects of N-[2-(1H-indol-3-yl)-ethyl]-comanilamide, N-[2-(5-methoxy-indol-3-yl)-ethyl]-comanilamide and 2-methyl-4-oxo-4H-pyran-3-yl [2-(5-methoxy-1H-indol-3-yl)ethyl]carbamate on Nav1.x Channels Expressed in Mammalian Cells
Method. A block of hNav1.x channels was measured using the stimulus voltage pattern shown in FIG. 1; voltage potentials are indicated in Table 2, below. The pulse pattern repeated twice: before and 5 minutes after N-[2-(1H-indol-3-yl)-ethyl]-comanilamide, N-[2-(5-methoxy-indol-3-yl)-ethyl]-comanilamide and 2-methyl-4-oxo-4H-pyran-3-yl[2-(5-methoxy-1H-indol-3-yl)ethyl]carbamate addition and peak current amplitudes at […] was measured (ITP1 and ITP2).

[4] = tested on: young male subjects, UVB-irradiated skin; assay: UVB sunburn model in humans, cold pain threshold (CPT); type: in vivo, human
Method: (§1) The anti-pruritus effect of N-[2-(1H-indol-3-yl)-ethyl]-comanilamide was tested using the UVB sunburn model (R. Rolke et al. (2006), Quantitative sensory testing in the German Research Network on neuropathic pain (DFNS): standardized protocol and reference values, Pain, 123, 231-243) used as an art-accepted surrogate model of itch (Andersen et al., Acta Derm Venereol. 2015; 95(7):771-7. Human surrogate models of histaminergic and non-histaminergic itch.).
(§2) Twenty four young male subjects ([…]N-[2-(1H-indol-3-yl)-ethyl]-comanilamide in escalated doses (300 mg-900 mg) and 6 in the placebo group), were exposed to three times the minimal erythema dose (MED) of UVB light on an approximately 4×4 cm area on the upper part of the leg in the morning of Day (−1) pre-dose on Day 1 and 2.5 hours post—dose on the UVB-irradiated area.
(§3) UVB irradiation causes skin inflammation which is noxious and elicits pronounced inflammation related temperature and mechanical hyperalgesia at the UVB-irradiated site. This hyperalgesia peaks at about 20-24 hours post irradiation after which it slowly subsides. Quantitative sensory testing (QST) assesses characteristic sensory patterns in pain and pruritus models.
(§4) The UVB irradiated skin was obtained by irradiating the marked area (approximately 4×4 cm) of the skin of the upper part of the right leg by three times the MED as determined during the screening. This was done approximately 20 hours prior to dosing.
Cold pain thresholds (CPT) were determined. The mean threshold temperature of five consecutive measurements was calculated. All thresholds were obtained with ramped stimuli (1 C/s) that were terminated when the subject pressed a button.

[5] = tested on: young male subjects, UVB-irradiated skin; assay: UVB sunburn model in humans, mechanical detection threshold (MDT) to von Frey hairs; type: in vivo, human; details: baseline Day (−1) before the sunburn; for MDT feel sensation, Post sunburn - Change from Baseline: pre-dose
Method: as §1, §2, §3, §4
Mechanical detection threshold (MDT) to von Frey hairs was assessed by using a standardized set of modified von Frey hairs (Optihair; Marstock Nervtest, Marburg, Germany) exerting forces between 0.25 and 512 mN (rounded tip, 0.5 mm in diameter). Thresholds were determined by the method of limits with the geometric mean of a series of 5 ascending and descending stimulus intensities.

[6] = read-out: Normalized % inhibition
[7] = Test conc 0.1 μM, vs 0.1 μM capsaicin

T1 sequence (Q8NER1 whole entry, species assumed): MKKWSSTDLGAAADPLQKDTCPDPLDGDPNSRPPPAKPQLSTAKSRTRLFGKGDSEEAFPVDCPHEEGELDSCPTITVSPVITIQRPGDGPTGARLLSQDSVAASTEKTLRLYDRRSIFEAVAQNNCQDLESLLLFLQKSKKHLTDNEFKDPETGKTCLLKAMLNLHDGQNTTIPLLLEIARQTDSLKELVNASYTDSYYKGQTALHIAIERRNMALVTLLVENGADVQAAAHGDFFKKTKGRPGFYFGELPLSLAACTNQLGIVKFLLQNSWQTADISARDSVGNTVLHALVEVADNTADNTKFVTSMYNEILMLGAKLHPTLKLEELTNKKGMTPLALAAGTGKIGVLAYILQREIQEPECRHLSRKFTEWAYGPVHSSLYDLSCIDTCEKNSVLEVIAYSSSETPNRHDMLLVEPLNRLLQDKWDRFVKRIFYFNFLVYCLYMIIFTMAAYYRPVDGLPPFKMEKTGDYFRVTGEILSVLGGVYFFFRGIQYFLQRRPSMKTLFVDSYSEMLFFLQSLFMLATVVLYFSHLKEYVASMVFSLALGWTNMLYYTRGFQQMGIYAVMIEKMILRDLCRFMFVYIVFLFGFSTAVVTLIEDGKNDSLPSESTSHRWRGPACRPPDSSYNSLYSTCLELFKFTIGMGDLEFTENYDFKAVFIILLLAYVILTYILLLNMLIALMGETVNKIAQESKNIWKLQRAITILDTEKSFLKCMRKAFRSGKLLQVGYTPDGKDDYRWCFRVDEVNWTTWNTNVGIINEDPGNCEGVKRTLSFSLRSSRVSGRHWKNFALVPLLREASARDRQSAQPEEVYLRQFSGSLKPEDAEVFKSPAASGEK
T2 sequence (Q15858 whole entry): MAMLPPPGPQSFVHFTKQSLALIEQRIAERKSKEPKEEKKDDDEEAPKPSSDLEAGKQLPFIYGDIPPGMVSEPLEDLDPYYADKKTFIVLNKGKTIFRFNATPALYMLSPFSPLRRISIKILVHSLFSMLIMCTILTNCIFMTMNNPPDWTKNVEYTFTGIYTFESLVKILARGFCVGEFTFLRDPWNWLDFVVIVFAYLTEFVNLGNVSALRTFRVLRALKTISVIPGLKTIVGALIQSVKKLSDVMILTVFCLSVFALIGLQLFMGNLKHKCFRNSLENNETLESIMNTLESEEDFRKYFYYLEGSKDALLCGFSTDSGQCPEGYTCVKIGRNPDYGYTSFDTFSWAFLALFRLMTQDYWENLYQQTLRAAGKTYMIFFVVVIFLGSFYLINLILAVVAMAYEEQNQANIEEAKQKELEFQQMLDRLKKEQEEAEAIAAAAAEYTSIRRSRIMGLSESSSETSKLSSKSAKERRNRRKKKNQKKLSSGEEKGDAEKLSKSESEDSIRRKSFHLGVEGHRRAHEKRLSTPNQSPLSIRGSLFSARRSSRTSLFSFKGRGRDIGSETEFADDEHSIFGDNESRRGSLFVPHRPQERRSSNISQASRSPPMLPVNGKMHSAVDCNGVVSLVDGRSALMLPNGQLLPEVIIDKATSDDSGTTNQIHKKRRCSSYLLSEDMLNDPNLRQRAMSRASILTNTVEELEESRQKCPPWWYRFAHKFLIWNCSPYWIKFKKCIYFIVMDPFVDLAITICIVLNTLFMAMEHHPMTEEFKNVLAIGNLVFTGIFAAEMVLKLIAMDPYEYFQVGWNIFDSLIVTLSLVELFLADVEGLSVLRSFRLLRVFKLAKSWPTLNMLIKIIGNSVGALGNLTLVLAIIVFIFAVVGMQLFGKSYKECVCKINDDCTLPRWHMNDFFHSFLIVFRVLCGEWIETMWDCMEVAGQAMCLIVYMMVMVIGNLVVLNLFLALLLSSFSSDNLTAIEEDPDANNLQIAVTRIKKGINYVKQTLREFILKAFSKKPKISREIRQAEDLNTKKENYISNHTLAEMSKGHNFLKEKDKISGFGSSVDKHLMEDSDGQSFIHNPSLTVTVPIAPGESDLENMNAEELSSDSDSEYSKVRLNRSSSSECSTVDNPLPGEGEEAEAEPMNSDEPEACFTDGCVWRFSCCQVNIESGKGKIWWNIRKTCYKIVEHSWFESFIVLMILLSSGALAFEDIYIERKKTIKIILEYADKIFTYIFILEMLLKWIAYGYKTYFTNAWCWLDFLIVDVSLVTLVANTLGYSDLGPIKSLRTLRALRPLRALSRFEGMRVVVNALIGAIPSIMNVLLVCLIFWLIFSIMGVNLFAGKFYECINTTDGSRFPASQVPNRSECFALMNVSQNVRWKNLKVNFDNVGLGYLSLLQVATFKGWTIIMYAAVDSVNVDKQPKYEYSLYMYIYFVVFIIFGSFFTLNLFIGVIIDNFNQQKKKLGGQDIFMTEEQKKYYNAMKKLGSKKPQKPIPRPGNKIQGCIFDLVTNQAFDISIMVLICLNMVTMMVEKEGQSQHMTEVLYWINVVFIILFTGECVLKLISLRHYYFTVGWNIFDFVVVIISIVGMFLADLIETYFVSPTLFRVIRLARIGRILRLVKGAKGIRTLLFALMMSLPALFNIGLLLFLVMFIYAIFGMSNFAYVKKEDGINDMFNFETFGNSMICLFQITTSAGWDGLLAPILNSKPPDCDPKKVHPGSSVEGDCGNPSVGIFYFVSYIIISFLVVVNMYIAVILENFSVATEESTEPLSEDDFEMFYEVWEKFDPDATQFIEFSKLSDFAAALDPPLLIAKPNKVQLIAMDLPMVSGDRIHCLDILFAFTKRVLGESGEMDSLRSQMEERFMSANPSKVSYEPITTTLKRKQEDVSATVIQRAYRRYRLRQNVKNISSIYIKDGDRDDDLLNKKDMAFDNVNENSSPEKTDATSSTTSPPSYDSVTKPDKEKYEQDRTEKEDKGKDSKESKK

SMILES | inhibitory effect on TRPV1 mediated calcium influx (in words) (TRPV1 [2]) | Normalized % Activation (TRPV1 [3]; Test conc 0.1 μM) | Normalized % Activation (TRPV1 [3]; Test conc 0.5 μM) | Normalized % Activation (TRPV1 [3]; Test conc 1 μM) | Normalized % Activation (TRPV1 [3]; Test conc 5 μM) | Normalized % Activation (TRPV1 [3]; Test conc 10 μM) | inhibition at 0.1 µM (TRPV1 [2]; [7]) | inhibition at 0.5 µM (TRPV1 [2]; vs 0.1 μM capsaicin) | inhibition at 1 µM (TRPV1 [2]; vs 0.1 μM capsaicin) | inhibition at 5 µM (TRPV1 [2]; vs 0.1 μM capsaicin) | inhibition at 10 µM (TRPV1 [2]; vs 0.1 μM capsaicin) | also measured
COc1ccc2[nH]cc(CCNC(=O)Oc3c(C)occc3=O)c2c1 [2-methyl-4-oxo-4H-pyran-3-yl [2-(5-methoxy-1H-indol-3-yl)ethyl]carbamate] | significant inhibitory effect | 12.65% | 9.58% | 12.16% | 5.75% | 12.26% | – | – | – | – | – | inhibition of the licking response, early phase [1]: 54%; inhibition of the licking response, late phase [1]: 86%; inhibition at 0.1 µM (TRPV1 [2]): -1.78%; inhibition at 0.5 µM (TRPV1 [3]; [6]): 23.6%; inhibition at 1 µM (TRPV1 [3]; [6]): 45.1%; inhibition at 5 µM (TRPV1 [3]; [6]): 44.6%; inhibition at 10 µM (TRPV1 [3]; [6]): 41.5%
O=C(NCCc1c[nH]c2ccccc12)c1cc(=O)cco1 [N-[2-(1H-indol-3-yl)-ethyl]-comanilamide] | significant inhibitory effect | 23.07% | 11.93% | 10.51% | 8.71% | 10.13% | 9.88% | 2.44% | 31.1% | 26.1% | 37.7% | inhibition of the licking response, early phase ([1]; 100 mg/kg): 57% and 38%; inhibition of the licking response, late phase ([1]; 100 mg/kg): 90% and 62%; selectivity among hNav1.x channels (in words) (hNav1.7): preferential inhibition of Nav1.7 channels; CPT, Post sunburn ([4]; 600 mg group, after UVB, pre-dose): 16.03 °C; CPT, Pre sunburn ([4]; 600 mg group, before UVB and before dosing): 5.55 °C; CPT, 2.5 h Post Drug Administration ([4]; 600 mg, 2.5 h post dose): 12.75 °C; time of peak response post dosing ([4]; human UVB sunburn model, analgesic/anti-pruritus effects): 2.5 h; MDT feel sensation, Post sunburn - Change from Baseline ([5]; 300 mg group): −10.92 mN; MDT feel sensation, 2.5 h post Drug administration - Change from Baseline ([5]; 300 mg): −12.13 mN; MDT feel sensation, Post sunburn - Change from Baseline ([5]; 600 mg group): −3.52 mN; MDT feel sensation, 2.5 h post Drug administration - Change from Baseline ([5]; 600 mg): −0.017 mN; MDT feel sensation, Post sunburn - Change from Baseline ([5]; 900 mg group): −7.24 mN; MDT feel sensation, 2.5 h post Drug administration - Change from Baseline ([5]; 900 mg): 0.84 mN
COc1ccc2[nH]cc(CCNC(=O)c3cc(=O)cco3)c2c1 [N-[2-(5-methoxy-indol-3-yl)-ethyl]-comanilamide] | significant inhibitory effect | 18.12% | 11.95% | 14.04% | 12.92% | 13.67% | 15.2% | 1.19% | 36.4% | 35.4% | 42.6% | –
